The target of test [1] is T1, Recombinant human TLR2 (RPA663Hu03) (Homo sapiens, UniProt O60603).
T1 construct: commercial recombinant protein (Biocom Africa), His-tag labelled with Red-tris-NTA
Description: microscale thermophoresis, His-tag-labelled TLR2. Type of test: binding. The text has this: microscale thermophoresis, His-tag-labelled TLR2 on Recombinant human TLR2 (RPA663Hu03)

Test [2] has as its target T2, Recombinant human TLR4 (Active ab233665) (Homo sapiens, UniProt O00206).
T2 construct: commercial recombinant protein (Abcam), labelled with Blue-NHS dye; no MD-2 mentioned
Put plainly: microscale thermophoresis, Blue-NHS-labelled TLR4. The test is classed as binding. From the text:
microscale thermophoresis, Blue-NHS-labelled TLR4 on Recombinant human TLR4 (Active ab233665)

SMILES strings stand for the structures.

T1 sequence (O60603 21-588 limits assumed): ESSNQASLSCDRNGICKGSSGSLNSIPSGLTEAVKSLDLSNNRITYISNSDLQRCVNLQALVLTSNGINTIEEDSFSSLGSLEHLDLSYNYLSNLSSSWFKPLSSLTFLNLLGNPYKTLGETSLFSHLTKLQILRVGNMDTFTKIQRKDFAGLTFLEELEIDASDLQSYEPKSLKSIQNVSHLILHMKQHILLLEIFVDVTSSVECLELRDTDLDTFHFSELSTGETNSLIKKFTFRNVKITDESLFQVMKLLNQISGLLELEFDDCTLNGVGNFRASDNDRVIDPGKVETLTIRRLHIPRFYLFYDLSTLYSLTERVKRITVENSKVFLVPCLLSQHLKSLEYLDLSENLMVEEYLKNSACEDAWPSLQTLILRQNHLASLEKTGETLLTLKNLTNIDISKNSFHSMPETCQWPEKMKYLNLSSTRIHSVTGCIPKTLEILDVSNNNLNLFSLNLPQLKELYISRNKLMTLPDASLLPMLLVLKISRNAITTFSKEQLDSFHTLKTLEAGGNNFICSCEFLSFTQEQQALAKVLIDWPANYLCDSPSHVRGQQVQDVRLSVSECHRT
T2 sequence (O00206 24-631 limits assumed): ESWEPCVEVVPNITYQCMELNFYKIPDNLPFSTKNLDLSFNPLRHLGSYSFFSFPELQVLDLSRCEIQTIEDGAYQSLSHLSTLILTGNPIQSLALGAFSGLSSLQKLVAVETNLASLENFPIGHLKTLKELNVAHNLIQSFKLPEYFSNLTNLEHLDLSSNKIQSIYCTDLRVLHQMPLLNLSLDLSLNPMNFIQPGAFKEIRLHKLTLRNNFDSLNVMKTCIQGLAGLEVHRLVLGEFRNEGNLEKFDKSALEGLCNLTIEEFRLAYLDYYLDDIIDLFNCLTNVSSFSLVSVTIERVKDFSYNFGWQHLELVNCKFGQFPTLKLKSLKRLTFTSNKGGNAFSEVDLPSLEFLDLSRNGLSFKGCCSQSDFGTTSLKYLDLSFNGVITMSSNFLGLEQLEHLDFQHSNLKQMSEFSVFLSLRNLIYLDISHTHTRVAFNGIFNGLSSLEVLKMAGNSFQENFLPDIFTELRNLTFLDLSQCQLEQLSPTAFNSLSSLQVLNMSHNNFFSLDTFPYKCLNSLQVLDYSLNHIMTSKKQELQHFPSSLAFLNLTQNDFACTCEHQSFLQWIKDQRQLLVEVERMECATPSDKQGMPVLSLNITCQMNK

As for `NCCCC[C@H](N)C(=O)O` [Lys], the Kd stood at 2.78 ± 0.74 µM in test [1] and 43.5 ± 2.35 µM in test [2].

(Values after PMC11812216, “Multifunctional hyaluronic acid-based biomimetic/pH-responsive hybrid nanostructured lipid carriers for treating bacterial sepsis” (Journal of Biomedical Science, 2025).)
